The first series in a line: Release study 8-4a: model traceless linker-drug conjugates M1-M19 held in 1×PBS at 37 °C, HPLC-UV/MS. The conditions noted are these: 1 mM in 1×PBS, first order fit, rounded to nearest whole day. It counts as physicochemical. The procedure:
8-4a. Release Study Protocol for M1-M19 Model Traceless Linker-Drug Conjugates In Vitro
In this study a series of model traceless linker-drug conjugates, in which the drug is a low molecular weight amine-containing compound, was held in 1×PBS at 37° C. These reactions were sampled at various timepoints and analyzed to determine concentration of remaining starting compound, as well as concentration of the released amine-containing drug (p-methoxybenzylamine, 2-amino-pyridine, p-methoxyaniline, or N-methyl-p-methoxybenzylamine). Half-lives for the parent degradation and the half-lives of release for the amine-containing drug were calculated.
Method for Estimation of Amine-Containing Drug Release Rates from M1-M19
Each compound M1-M19 was prepared as a 0.1 M stock solution in DMF, as were a set of standard solutions for the released amine-containing drug (4-methoxybenzylamine, 2-aminopyridine, p-methoxyaniline, and N-methyl-p-methoxybenzylamine). A 35 μL aliquot of each solution was added to 3.465 mL of PBS to obtain 1 mM solutions of each conjugate or amine-containing drug. A 150 μL aliquot of each 1 mM solution was dispensed into LCMS vials with a polypropylene insert; 2 vials were prepared for each compound at each time point.
The vials were incubated at 37° C. At each time point (e.g., 0, 1, 5, 7, 14, 21, 28, 35, 49, and 56 days), two vials of each conjugate were removed from the incubator and frozen at −20° C. to avoid further hydrolysis. All samples were thawed and analyzed in one batch after completion of the release study using the analytical HPLC method described below. Each sample was analyzed twice. Control solutions of the amine-containing drugs were prepared prior to analysis and were analyzed as is without prior incubation at 37° C.
Analytical HPLC-MS Conditions for Study 8.4a
HPLC: Thermo Accela HPLC and Autosampler; Autosampler Tray Temperature: 8° C.; Injection Volume: 20 μL; Column: Phenomenex Kinetex C18, 2.1×50 mm, 2.6 μm. Column Temperature: Ambient; Mobile Phases: A=0.1% formic acid in water; B=0.1% formic acid in acetonitrile; Flow Rate: 200 μL/min. Gradient (time/% B): 0/0, 3/0, 10/80, 15/80, 15.1/0, 18/0.
UV: Thermo Accela PDA; Scan Range: 200-400 nm; Wavelength Step: 1 nm; Sample Rate: 20 Hz; Filter Bandwidth: 9 nm; MS: Thermo LTQ XL; Ionization Mode: ESI; Spray Voltage: 0 V at time 0-1 minutes then switched to 4 kV; Capillary Temperature: 250° C.; Divert Valve: LC eluate to waste at time 0-1 minutes then flow diverted MS; Mass Range: 120-800 Da.
The composition of the solution was evaluated at each timepoint using HPLC. Parent, intermediate and released amine-containing drug peaks were assigned by MS detection, and the relative amounts of each species were determined by integration of the peaks from the chromatogram generated using UV absorbance detection at 272 nm. The mean peak area for each compound M1-M19 on Day 0 was assigned a normalized value of 100. For the standard of the amine-containing drug being released (e.g., p-methoxybenzylamine) the mean peak area of each standard was assigned a normalized value of 100. The absolute area under curve for each species detected were compared with these values. Run-to-run peak area reproducibility was typically within 20% on strong signal and considerably worse on weak signals, so normalized signals above 100 likely correspond to values at or approaching 100 (likely 90-100, within experimental error). The percentage of parent and amine-containing drug present in the solution were calculated by dividing the relevant peak area by the mean area that was assigned a normalized value of 100 for the same species and multiplying the result by 100. The percentage of parent and amine-containing drug present in the solution was plotted versus time and the half-life of degradation for the parent and the half-life of release for the amine-containing drug were estimated using curve-fitting software assuming first order kinetics.
As to `COc1ccc(CNC(=O)CN2CCN(C(C)=O)CC2COC2CCCCO2)cc1` (centres unmarked) [M10, 2-(4′-acetyl-2′-(((tetrahydro-2″H-pyran-2″-yl)oxy)methyl)piperazin-1′-yl)-N-(4′″-methoxybenzyl)acetamide], the “Calculated stability t1/2, parent (d)” value is “No degradation”.

For `CNC(=O)OCC1CN(C(C)=O)CCN1CC(=O)NCc1ccc(OC)cc1` (centres unmarked) [M9, 1-(4′-acetyl-1′-(2″-((4″′-methoxybenzyl)amino)-2″-oxoethyl)piperazin-2′-yl)methyl N-methylcarbamate], the “Calculated stability t1/2, parent (d)” value is “No degradation”.

Staying with this series, now noted: 1 mM in 1×PBS, first order fit, rounded to nearest whole day, read-out: Calculated stability t1/2, parent (converted).
Take `CCC(=O)OCC1CN(C(=O)CCNC(=O)OCc2ccccc2)CCN1CC(=O)NCc1ccc(OC)cc1` (centres unmarked) [M1, (4-(3′-(((benzyloxy)carbonyl)amino)propanoyl)-1-(2″-((4″′-methoxybenzyl)amino)-2″-oxoethyl)piperazin-2-yl)methyl propionate]: the half-life at 1 mM was 37 days.

For `COc1ccc(CNC(=O)CN2CCN(C(=O)CCNC(=O)OCc3ccccc3)CC2COC(C)=O)cc1` (centres unmarked) [M2, (4-(3′-(((benzyloxy)carbonyl)amino)propanoyl)-1-(2″-((4″′-methoxybenzyl)amino)-2″-oxoethyl)piperazin-2-yl)methyl acetate], the half-life at 1 mM is 23 days.

Take `CCC1CCN(CC(=O)Nc2ccccn2)C(COC(C)=O)C1` (centres unmarked) [M19, 1-(4′-ethyl-1′-(2″-oxo-2″-(pyridin-2″′-ylamino)ethyl)piperidin-2′-yl)methyl acetate]: the half-life at 1 mM was 6 days.

On to `COCC(=O)OCC1CN(C(=O)CCNC(=O)OCc2ccccc2)CCN1CC(=O)NCc1ccc(OC)cc1` (centres unmarked) [M3, (4-(3′-(((benzyloxy)carbonyl)amino)propanoyl)-1-(2″-((4″′-methoxybenzyl)amino)-2″-oxoethyl)piperazin-2-yl)methyl methoxyacetate], for which the half-life at 1 mM is 2 days.

In the case of `CC(=O)OCC1CN(C(C)=O)CCN1CC(=O)Nc1ccccn1` (centres unmarked) [M17, 1-(4′-acetyl-1′-(2″-oxo-2″-(pyridin-2′″-ylamino)ethyl)piperazin-2′-yl)methyl acetate], the half-life at 1 mM is 50 days.

Turning to `COC(=O)OCC1CN(C(C)=O)CCN1CC(=O)NCc1ccc(OC)cc1` (centres unmarked) [M8, (4-acetyl-1-(2′-((4″-methoxybenzyl)amino)-2′-oxoethyl)piperazin-2-yl)methyl methyl carbonate], the half-life at 1 mM was 35 days.

As to `CC(=O)OCC1CN(C)CCN1CC(=O)Nc1ccccn1` (centres unmarked) [M18, 1-(4′-methyl-1′-(2″-oxo-2″-(pyridin-2′″-ylamino)ethyl)piperazin-2′-yl)methyl acetate], the half-life at 1 mM is 8 days.

For the compound `COCC(=O)OCC1CN(C(=O)CCNC(=O)OCc2ccccc2)CCN1CC(=O)N(C)Cc1ccc(OC)cc1` (centres unmarked) [M4, (4-(3′-(((benzyloxy)carbonyl)amino)propanoyl)-1-(2″-((4′″-methoxybenzyl)(methyl)amino)-2″-oxoethyl)piperazin-2-yl)methyl 2-methoxyacetate], the half-life at 1 mM was 2 days.

Consider `COC(=O)C1CN(C(C)=O)CCN1CC(=O)NCc1ccc(OC)cc1` (centres unmarked) [M7, methyl 4-acetyl-1-(2′-((4″-methoxybenzyl)amino)-2′-oxoethyl)piperazine-2-carboxylate], for which the half-life at 1 mM was 3 days.

As to `COc1ccc(CNC(=O)CN2CCN(C(C)=O)CC2COC(C)=O)cc1` (centres unmarked) [M6, (4-acetyl-1-(2′-((4″-methoxybenzyl)amino)-2′-oxoethyl)piperazin-2-yl)methyl acetate], the half-life at 1 mM is 26 days.

On to `COCC(=O)OCC1CN(C(=O)CCNC(=O)OCc2ccccc2)CCN1CC(=O)Nc1ccc(OC)cc1` (centres unmarked) [M5, (4-(3′-(((benzyloxy)carbonyl)amino)propanoyl)-1-(2′-((4″′-methoxyphenyl)amino)-2″-oxoethyl)piperazin-2-yl)methyl 2″″-methoxyacetate], for which the half-life at 1 mM is 3 days.

Another series in a line: Release study 8-4b: degradation of model conjugates M20-M27 in aqueous DMF:PBS at 37 °C, HPLC-UV/MS. The format is physicochemical. The conditions noted are these: 1 mM in 2:1 DMF:PBS, first order fit, rounded to nearest whole day. Here is the method:
8-4b. M20-M27 In Vitro Release Study
In this study, a series of model traceless linker-drug conjugates M20-M27 was held in aqueous solution at 37° C. These reactions were sampled at various timepoints and analyzed to determine the concentration of remaining starting compound. The analytical method was not optimized to determine concentration of the amine-containing drug. Half-life of degradation for the parent was calculated.
Method for Estimation of Conjugate Degradation Rates for M20-M27
Each compound M20-M27 was prepared as a 0.1 M stock solution in DMF. A 35 μL aliquot of each solution was added to 3.465 mL of 2:1 DMF:PBS (for compound M24: 3:1 DMF:PBS) to obtain 1 mM solutions of each compound M20-M27. The reaction vials were held at 37° C. At each time point (e.g., 0, 1, 3, 8, 14, 21, 28, 35, 49, 56, 70, 92 days) analytical samples were prepared by collecting 150 μL from each 1 mM solution and diluting with 75 μL DMF. Two analytical samples were collected from each reaction vial at each time point and stored at 4° C. All samples were analyzed in one batch after completion of the release study. Each sample was analyzed twice using an analytical HPLC method described below.
The composition of the reaction solution was evaluated at each timepoint using HPLC. Compound M20-M27 peaks were assigned by MS detection, and the integration of the peak from the chromatogram generated using UV absorbance detection at 272 nm was determined. The mean peak area for each compound M20-M27 on Day 0 was assigned a normalized value of 100. The absolute area under the curve at each timepoint was compared with these values. Run-to-run peak area reproducibility was typically within 20% on strong signal and considerably worse on weak signals, so normalized signals above 100 likely correspond to values at or approaching 100 (likely 90-100, within experimental error). The percentage of compounds M20-M27 remaining in the solution were calculated by dividing the relevant peak area by the mean area that was assigned a normalized value of 100 and multiplying the result by 100. The percentage of compound M20-M27 present in the solution was plotted versus time and the half-life of degradation was estimated using curve-fitting software assuming first order kinetics.
Analytical HPLC-MS Conditions for Study 8.4b.
All settings the same as for analytical HPLC-MS conditions for study 8.4a except the following: Mobile Phases: A=5 mM ammonium hydroxide in water; B=5 mM ammonium hydroxide in acetonitrile; Flow Rate: 400 μL/min: Gradient (time/% B): 0/10, 0.5/10, 4/80, 8/80, 8.1/10, 12/10. Divert valve switched at 0.5 minutes after sample injection.
On to `CCO[Si](OCC1CN(C(=O)CCNC(=O)OCc2ccccc2)CCN1CC(=O)NCc1ccc(OC)cc1)(C(C)C)C(C)C` (centres unmarked) [M27, benzyl N-(3-(3′-(((ethoxydiisopropylsilyl)oxy)methyl)-4′-(2″-((4′′′-methoxybenzyl)amino)-2″-oxoethyl)piperazin-1′-yl)-3-oxopropyl)carbamate], for which the “Calculated stability t1/2, parent (d)” value was “No degradation”.

For `COc1ccc(CNC(=O)CN2CCN(C(=O)CCNC(=O)OCc3ccccc3)CC2CO[Si](OC(C)C)(C(C)C)C(C)C)cc1` (centres unmarked) [M26, benzyl N-(3-(3′-(((isopropoxydiisopropylsilyl)oxy)methyl)-4′-(2″-((4′′′-methoxybenzyl)amino)-2″-oxoethyl)piperazin-1′-yl)-3-oxopropyl)carbamate], the “Calculated stability t1/2, parent (d)” value is “No degradation”.

Still in this series, the particulars now being: 1 mM in 2:1 DMF:PBS, first order fit, rounded to nearest whole day, read-out: Calculated stability t1/2, parent (converted).
Take `CCOCC(C)O[Si](CC)(CC)OCC1CN(C(=O)CCNC(=O)OCc2ccccc2)CCN1CC(=O)NCc1ccc(OC)cc1` (centres unmarked) [M23]: the half-life at 1 mM was 47 days.

Turning to `CCC(C)O[Si](CC)(CC)OCC1CN(C(=O)CCNC(=O)OCc2ccccc2)CCN1CC(=O)NCc1ccc(OC)cc1` (centres unmarked) [M25], the half-life at 1 mM was 80 days.

`CC[Si](CC)(OCCOCCOC)OCC1CN(C(=O)CCNC(=O)OCc2ccccc2)CCN1CC(=O)NCc1ccc(OC)cc1` (centres unmarked) [M22]: the half-life at 1 mM was 23 days.

On to `CC[Si](CC)(OCC1CN(C(=O)CCNC(=O)OCc2ccccc2)CCN1CC(=O)NCc1ccc(OC)cc1)OC1CCOCC1` (centres unmarked) [M21], for which the half-life at 1 mM is 126 days.

Staying with this series, now noted: 1 mM in 3:1 DMF:PBS (compound M24), first order fit, read-out: Calculated stability t1/2, parent (converted).
With `CC[Si](CC)(OCC(C)C)OCC1CN(C(=O)CCNC(=O)OCc2ccccc2)CCN1CC(=O)NCc1ccc(OC)cc1` (centres unmarked) [M24], the half-life at 1 mM was 36 days.
